Values after ≈ are worked out from the molar mass of the structure shown. Where two headings read alike, the source gives them in different places.

In test [1] the test system is M. tuberculosis pNIP::InhA(S94A). The class given is cell-based, Mycobacterium tuberculosis.
Test [2] relates to M. tuberculosis drug-resistant clinical isolate CDCT-27. The format is cell-based, Mycobacterium tuberculosis.
In test [3] the test system is M. tuberculosis drug-resistant clinical isolate CDCT-16. The format is cell-based, Mycobacterium tuberculosis.
The subject of test [4] is M. tuberculosis drug-resistant clinical isolate CDCT-10. The format is cell-based, Mycobacterium tuberculosis.
In test [5] the test system is M. tuberculosis pNIP::KatG(S315T). The format is cell-based, Mycobacterium tuberculosis.
The test system of test [6] is M. tuberculosis drug-resistant clinical isolate CDCT-10. The conditions noted are these: cited from earlier work.
Test [7] concerns M. tuberculosis drug-resistant clinical isolate CDCT-27. The conditions noted are these: cited from earlier work.
The test system of test [8] is M. tuberculosis drug-resistant clinical isolate CDCT-16. The conditions noted are these: cited from earlier work.

A word on the MIC: it is the least concentration at which growth counts as inhibited. With `COc1cccc(C(=O)/C=C/c2ccc3nccnc3c2)c1` [N23], the MIC in test [1] was 2.5 µg/mL (≈ 8.61 µM); in test [2], 5 µg/mL (≈ 17.2 µM); in test [3], 5 µg/mL (≈ 17.2 µM); in test [4], 2.5 µg/mL (≈ 8.61 µM); in test [5], 1.25 µg/mL (≈ 4.31 µM).
For `COc1ccc(OC)c(C(=O)/C=C/c2ccc3nccnc3c2)c1` [N9], the MIC amounted to 3.13 µg/mL (≈ 9.77 µM) in test [1]; 3.13 µg/mL (≈ 9.77 µM) in test [2]; 3.13 µg/mL (≈ 9.77 µM) in test [3]; 1.56 µg/mL (≈ 4.87 µM) in test [4]; 1.56 µg/mL (≈ 4.87 µM) in test [5].
`NNC(=O)c1ccncc1` [INH, isoniazid, reference compound]: the MIC in test [1] is 12.5 µg/mL (≈ 91.1 µM); in test [2], 25 µg/mL (≈ 182 µM); in test [3], over 100 µg/mL; in test [4] it was 6.25 µg/mL (≈ 45.6 µM); in test [5], over 100 µg/mL.
As to `CO[C@H]1/C=C/O[C@@]2(C)Oc3c(C)c(O)c4c(O)c(c(/C=N/N5CCN(C)CC5)c(O)c4c3C2=O)NC(=O)/C(C)=C\C=C\[C@H](C)[C@H](O)[C@@H](C)[C@@H](O)[C@@H](C)[C@H](OC(C)=O)[C@@H]1C` [RIF, Rifampicin], the figures for the MIC in test [6], in test [7] and in test [8] were over 100 µg/mL, under 0.2 µg/mL and over 100 µg/mL, respectively.
For the compound `COc1cc(C(=O)/C=C/c2ccc3nccnc3c2)cc(OC)c1OC` [N15], the MIC in test [1] was 3.13 µg/mL (≈ 8.93 µM); in test [2] it was 6.25 µg/mL (≈ 17.8 µM); in test [3], 6.25 µg/mL (≈ 17.8 µM); in test [4] it was 3.13 µg/mL (≈ 8.93 µM); in test [5], 3.13 µg/mL (≈ 8.93 µM).

(Values after paper PMC6095594, “Pre-clinical evaluation of quinoxaline-derived chalcones in tuberculosis” (PLoS ONE, 2018).)
